Experimental data published in article PMC3640069 (PLoS ONE, 2013).
Read-outs that look alike come from different tables or passages of the source. Marks after values point to notes of the source that are not given here.

What was measured:
SHR = test system: SHR; parameters: method as in 5 sources, ref 30 = [30]; PMID 7673515; doi:10.3168/jds.S0022-0302(95)76745-5; 30 Nakamura Y , Yamamoto N , Sakai K , Takano T ( 1995 ) Antihypertensive effect of sour milk and peptides isolated from it that are inhibitors to angiotensin I-converting enzyme . J Dairy Sci 78 : 12 ||| ref 31 = [31]; PMID 8880454; doi:10.3168/jds.S0022-0302(96)76487-1; 31 Maeno M , Yamamoto N , Takano T ( 1996 ) Identification of an antihypertensive peptide from casein hydrolysate produced by a proteinase from Lactobacillus helveticus CP790 . J Dairy Sci 79 : 1316 – ||| ref 32 = [32]; PMID 9891260; doi:10.3168/jds.S0022-0302(98)75878-3; 32 Abubakar A , Saito T , Kittazawa H , Kawai Y , Itoh T ( 1998 ) Structural analysis of new antihypertensive peptides derived from cheese whey protein by proteinase K digestion . J Dairy Sci 81 : 313 ||| ref 33 = [33]; PMID 10794501; doi:10.1016/s0024-3205(00)00471-9; 33 Nurminen ML , Sipola M , Kaarto H , Pihlanto-Leppälä A , Piilola K , et al ( 2000 ) α-Lactorphin lowers blood pressure measured by radiotelemetry in normotensive and spontaneously hypertensive rats ||| ref 34 = [34]; 34 Miguel M , Contreras MM , Recio I , Aleixandre A ( 2009 ) ACE-inhibitory and antihypertensive properties of a bovine casein hydrolysate . Food Chemistry 112 : 211 – 214 .; details: cited from earlier work
[1] = normoglycemic and normotensive animal model; cited from earlier work
Source text: It is necessary to evaluate the ACE-inhibitor effect on the blood glucose level of hyperpietics simultaneously since blood sugar was positively correlated with blood pressure (systolic and diastolic), and this correlation was independent of common associations with age, body mass index (BMI) and heart rate.

ACE from rabbit lungs = assay: ACE inhibitory activity in vitro (HHL hydrolysis, HPLC of hippuric acid); format: biochemical; details: 10 µmol/L peptide, crude ACE extract from rabbit lung, 5 mmol/L HHL, 37°C, 10 min pre-incubation + 20 min, RP-HPLC 228 nm, mean ± SD
Protocol: ACE extracts were prepared and its activity was determined according to the method of Nakamura et al. and Wu & Ding with some modifications. Briefly, the fresh rabbit lung without connective tissues was cut into pieces and washed with precooled NaCl (0.7%) to get rid of blood. The tissue pieces were homogenized in precooled 5-fold the volume of fresh rabbit lung weight (v/w, mL/g) of 100 mM sodium borate buffer (BBS) (pH 8.3). The mixtures were then filtrated with 3-ply gauze followed by ultracentrifuged for 40 min (40,000 g, at 4°C). The supernatant as crude ACE extracts was retained and stored at 5°C [24].
The ACE activity was assayed using the method described by Wu & Ding. It was based on the hydrolysis of hippuryl-L-histidyl-L-leucine (HHL) by ACE to hippuric acid (HA) and histidyl-leucine (HL) as products. The HA release from HHL was directly related to the ACE activity. One unit (U) of ACE was defined as the amount of enzyme catalyzing the release of 1 µmol/L HA from the substrate HHL per minute at 37°C. Briefly, 30 µL of ACE crude extracts were mixed with 100 µL of BBS (pH 8.3). The mixture was incubated at 37°C for 10 min. Then, 200 µL of 5 mmol/L HHL solution substrate were added and the reaction mixture was incubated at 37°C for 20 min. The reaction was stopped by the addition of 250 µL of 1 mol/L HCl. 10 µL of solution were analyzed by reversed-phase HPLC and detected at the wavelength of λ = 228 nm. The column was eluted with 20% acetonitrile (in water, v/v) containing 0.1% (v/v) TFA on AKATA purifier 10 with a flow rate of 1.0 mL/min. The blank experiment was executed with premixing 250 µL of 1 mol/L HCl and 30 µL of ACE crude extracts to inhibit the activity of ACE.
Evaluation of ACE inhibitory activity was assayed using the same method described in above section with some modifications. Briefly, 2 µL of ACE crude extracts were mixed with 80 µL of 10 µmol/L each selected peptide solution. The mixture was incubated at 37°C for 10 min, after which 200 µL of 5 mmol/L HHL solution substrate were added and the reaction mixture was incubated at 37°C for 20 min. Finally, 250 µL of 1 mol/L HCl were added to stop the reaction and 10 µL of solution were used to analyze HA release from HHL by reversed-phase HPLC with the same condition described above and detected at the wavelength of λ = 228 nm. Controls with equal volume of BBS as sample substitute were included for each measurement, and the blank experiment was executed with premixing 250 µL of 1 mol/L HCl and 2 µL of ACE crude extracts to inhibit the activity of ACE, firstly.
The evaluation of ACE inhibition was based on the measurement of the HA peak areas, and the degree of ACE inhibition (%) was calculated according to Eq.1: [drawing 1] (Eq.1) […]

[2] = test system: spontaneously hypertensive rats (SHR/Slac); assay: Systolic blood pressure of SHR after single intragastric administration (tail-cuff); format: in vivo, rat; details: for dose-dependence of the lowering SBP effect: 0.75 versus […] BW, relative lowering SBP rate
Protocol: The spontaneously hypertensive, strain SHR/Slac male rats (Production Permit Number: SCXK (Shanghai) 2007-0005; Body weight, average ∼400 g; Age, 20 weeks old), were purchased from Shanghai SLAC Laboratory Animal Co. Ltd. (Shanghai, China). The SHR were housed in cages and maintained under specific pathogen-free conditions on a cycle of 12 h of light and 12 h of darkness at Center of Experimental Animal, School of Pharmacy, Shanghai Jiao Tong University (Use Permit Number: SYXK (Shanghai) 2007-0025). The temperature and humidity in the cages were controlled at 24±1°C and 60±5%, respectively. SHRs were acclimatized for 7 days prior to experimentation. The rats were fed a standard laboratory diet (SLACOM; Shanghai, China), and tap water was freely available. After the hexapeptide water-solution (dose, 1.5 mg/kg body weight) injection with intragastric administration in six SHR, the systolic blood pressure (SBP) of each rat was measured by the tail-cuff method with a programmable electrosphygmomanometer (model SoftronBP-98A; Softron Beijing Incorporated, Beijing, China) at 1 h interval. A heater lamp was on the tail to improve signal quality. To obtain an accurate SBP reading, rats were first habituated to the SBP measurement device. Definitive measurements began when rats remained unperturbed into the chamber throughout the inflation-deflation cycles. The SBP in each SHR with administration of distilled water (2 mL) was used as the control value. The data are expressed as means and standard errors (n = 6).
To evaluate whether the lowering SBP effect was the dose-dependence relative to the test peptides, the SHR were also treated with 0.75 mg/kg BW peptides water-solution as above program. And the relative lowering SBP effect was calculated as the following equation (Eq.2): [drawing 2] (Eq.2) where SBPinitial is the initial SBP values of SHR right before the peptide administration, SBPlowest is the lowest SBP value obtained within 5 h after the administration with the tested peptides.

SERCA 2a gene = assay: Quantitative real time-PCR of SERCA 2a gene mRNA in SHR heart; format: in vivo, rat; details: 3 h after feeding the peptide, GAPDH reference, three biological replicates
Protocol: Quantitative real time-PCR (qRT-PCR) analysis was performed using SYBR Premix EX Taq (TaKaRa) on a Rotor-Gene R[…] detection system (Corbett Research) as described by Zhang et al. (2010) with the exception of the annealing temperature at 58 °C when using the primers […]) and […]), [26]. Gene GAPDH was used as reference gene with primer […]) and […]). Three biological replicates were used, and each with three technical repeats.

ACE = details: literature value; cited from earlier work
Source text: In the past decades, researchers have focused on the natural nutraceutical resources and investigated the potential antihypertensive activity in vitro by ACE-inhibitory activity, [5]. Some natural phytochemicals from plants, including rutin, quercetin glycoside, epicatechin-tetramer and cyanidin-3-O-sambubioside have been extensively studied as a substitute for chemo-pharmaceuticals [6]–[8]. Also, some antihypertensive peptides have been identified from hydrolyzed or fermented milk and other dietary sources. Among them, the Isoleucine-Proline-Proline (IPP) and Valine-Proline- ...

Molecule	ACE inhibition rate (%) (ACE from rabbit lungs)	dose-dependence of the lowering SBP effect [2]	transcriptional level of SERCA 2a gene (SERCA 2a gene)	also measured
C[C@H](CS)C(=O)N1CCC[C@H]1C(=O)O [captopril]				decrease in SBP (SHR; male SHR, 50 mg/kg, 4–6 h after administration): about 53±4 mmHg; effect on postprandial blood glucose levels [1]: no significant effect
Isoleucine-Proline-Proline [IPP]	56.97±2.40^a %	dose-dependent effect	3.80 times of the control	IC50 (ACE): 5 µM; decrease in SBP (SHR; SHR, 0.3 mg/kg BW): 21.7±4.1 mmHg
Isoleucine-Proline-Proline-Valine- Proline-Proline [IPPVPP]	13.17±0.25^c %	did not	2.70 times of the control	
KVLPVPQ [heptapeptide KVLPVPQ (β-casein 169–175aa)]				maximal decrease in SBP (SHR; SHR, 2 mg/kg BW): 31.5±5.6 mmHg
Valine-Proline-Proline [VPP]	37.62±6.68^b %			IC50 (ACE): 9 µM
Valine-Proline-Proline-Isoleucine-Proline-Proline [VPPIPP]	34.71±4.38^b %	dose-dependent effect	3.98 times of the control	relative lowering SBP rate, comparison between peptides ([2]; 0.75 mg/kg BW, intragastric): did not show significantly different from IPPVPP and IPP
YGLF [whey protein derived tetrapeptide]				reduction of SBP (SHR; SHR, subcutaneous, 0.1 mg/kg BW): 23±4 mmHg
